From patent US11331314B2, “Amine substituted triazole derivatives and uses thereof” (Bayer Pharma Aktiengesellschaft, priority 2017, dated 2022)

How the values were obtained:
human V1a receptor = human V1a receptor (Homo sapiens, UniProt P37288); assay: Cellular in vitro assay for determining vasopressin receptor activity, V1a receptor cell line (photoprotein luminescence); type: cell-based; conditions: for IC50: CHO cell line transfected with the human V1a receptor, agonist [Arg8]-vasopressin at EC50 concentration, read-out: IC50 hV1a; for ratio IC50 hV2/hV1a: selectivity ratio of the cellular IC50 values
Summary of the method: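 CHO K1 cells stably expressing human V1a receptor with aequorin photoprotein, loaded overnight with coelenterazine. Compounds preincubated 10 min at various concentrations, then challenged with [Arg^8]-vasopressin at EC50 concentration. Calcium-driven luminescence read immediately; IC50 values derived.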

human V2 receptor = molecular target: T1, human V2 receptor (Homo sapiens, UniProt P30518); assay: Cellular in vitro assay for determining vasopressin receptor activity, V2 receptor cell line (CRE-luciferase); type: cell-based; conditions: CHO cell line transfected with the human V2 receptor; agonist [Arg8]-vasopressin at EC50 concentration; read-out: IC50 hV2
T1 construct: expressed in transfected cells; host or cells: CHO K1 (ATCC) expressing firefly luciferase under a CRE-responsive promoter
T1 sequence (P30518 whole entry): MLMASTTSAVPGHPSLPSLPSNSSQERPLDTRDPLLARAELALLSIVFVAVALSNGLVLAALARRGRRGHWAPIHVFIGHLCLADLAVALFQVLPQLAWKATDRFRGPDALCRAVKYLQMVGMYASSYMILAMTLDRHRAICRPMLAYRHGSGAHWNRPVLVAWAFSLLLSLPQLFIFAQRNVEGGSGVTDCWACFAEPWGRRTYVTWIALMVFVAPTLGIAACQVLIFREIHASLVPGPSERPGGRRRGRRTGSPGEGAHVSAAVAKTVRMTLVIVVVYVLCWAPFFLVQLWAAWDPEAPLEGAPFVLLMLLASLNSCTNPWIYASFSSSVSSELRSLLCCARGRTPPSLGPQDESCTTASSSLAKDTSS

Chain of human V1a receptor (P37288 whole entry): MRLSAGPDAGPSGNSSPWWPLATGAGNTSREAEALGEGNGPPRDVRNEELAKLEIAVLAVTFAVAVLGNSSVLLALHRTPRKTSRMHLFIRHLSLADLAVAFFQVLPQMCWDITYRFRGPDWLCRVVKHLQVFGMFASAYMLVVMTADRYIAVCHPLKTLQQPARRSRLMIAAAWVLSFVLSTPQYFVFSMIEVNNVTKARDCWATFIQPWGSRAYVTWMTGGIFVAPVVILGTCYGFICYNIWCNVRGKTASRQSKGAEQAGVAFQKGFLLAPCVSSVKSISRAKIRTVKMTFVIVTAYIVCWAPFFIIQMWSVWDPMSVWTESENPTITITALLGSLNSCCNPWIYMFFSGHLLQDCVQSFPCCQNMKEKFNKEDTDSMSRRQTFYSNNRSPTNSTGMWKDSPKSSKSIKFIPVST

Structure (SMILES)	IC50 (human V1a receptor) [nM]	ratio IC50 hV2/hV1a (human V1a receptor)	IC50 (human V2 receptor) [nM]
O=C1CN(c2nc(Cn3nc(-c4ccc(Cl)cc4)n(C[C@H](O)C(F)(F)F)c3=O)nn2CCC(F)(F)F)CCN1 [Example 112, 4-[3-({3-(4-Chlorophenyl)-5-oxo-4-[(2S)-3,3,3-trifluoro-2-hydroxypropyl]-4,5-dihydro-1H-1,2,4-triazol-1-yl}methyl)-1-(3,3,3-trifluoropropyl)-1H-1,2,4-triazol-5-yl]piperazin-2-one]	114	7.1	810
NC(=O)C1CN(c2nc(Cn3nc(-c4ccc(Cl)cc4)n(C[C@H](O)C(F)(F)F)c3=O)nn2CCC(F)(F)F)C1 [Example 113, 1-[3-({3-(4-Chlorophenyl)-5-oxo-4-[(2S)-3,3,3-trifluoro-2-hydroxypropyl]-4,5-dihydro-1H-1,2,4-triazol-1-yl}methyl)-1-(3,3,3-trifluoropropyl)-1H-1,2,4-triazol-5-yl]azetidine-3-carboxamide]	37	9.7	360
CC1(C)CN(c2nc(Cn3nc(-c4ccc(Cl)cc4)n(C[C@H](O)C(F)(F)F)c3=O)nn2CCC(F)(F)F)CCN1 [Example 114, 5-(4-Chlorophenyl)-2-{[5-(3,3-dimethylpiperazin-1-yl)-1-(3,3,3-trifluoropropyl)-1H-1,2,4-triazol-3-yl]methyl}-4-[(2S)-3,3,3-trifluoro-2-hydroxypropyl]-2,4-dihydro-3H-1,2,4-triazol-3-one]	10.3		1800
CCOC(=O)CNc1nc(Cn2nc(-c3ccc(Cl)cc3)n(C[C@H](O)C(F)(F)F)c2=O)nn1-c1cccc(Cl)c1 [Example 115, Ethyl N-[1-(3-chlorophenyl)-3-({3-(4-chlorophenyl)-5-oxo-4-[(2S)-3,3,3-trifluoro-2-hydroxypropyl]-4,5-dihydro-1H-1,2,4-triazol-1-yl}methyl)-1H-1,2,4-triazol-5-yl]glycinate]	5.86	0.4	2.07
COCCNc1nc(Cn2nc(-c3ccc(Cl)cc3)n(C[C@H](O)C(F)(F)F)c2=O)nn1-c1cccc(F)c1 [Example 116, 5-(4-Chlorophenyl)-2-({1-(3-fluorophenyl)-5-[(2-methoxyethyl)amino]-1H-1,2,4-triazol-3-yl}methyl)-4-[(2S)-3,3,3-trifluoro-2-hydroxypropyl]-2,4-dihydro-3H-1,2,4-triazol-3-one]	1.35	1.5	1.98
O=c1n(Cc2nc(N3CCCC3)n(-c3cccc(Cl)c3)n2)nc(-c2ccc(Cl)cc2)n1C[C@H](O)C(F)(F)F [Example 117, 5-(4-Chlorophenyl)-2-{[1-(3-chlorophenyl)-5-(pyrrolidin-1-yl)-1H-1,2,4-triazol-3-yl]methyl}-4-[(2S)-3,3,3-trifluoro-2-hydroxypropyl]-2,4-dihydro-3H-1,2,4-triazol-3-one]	66.5	0.3	19.2
CNc1nc(Cn2nc(-c3ccc(Cl)cc3)n(C[C@H](O)C(F)(F)F)c2=O)nn1-c1cccc(Cl)c1 [Example 118, 5-(4-Chlorophenyl)-2-{[1-(3-chlorophenyl)-5-(methylamino)-1H-1,2,4-triazol-3-yl]methyl}-4-[(2S)-3,3,3-trifluoro-2-hydroxypropyl]-2,4-dihydro-3H-1,2,4-triazol-3-one]	16.4	0.1	1.04
O=c1n(Cc2nc(N3CCOCC3)n(-c3cccc(F)c3)n2)nc(-c2ccc(Cl)cc2)n1C[C@H](O)C(F)(F)F [Example 119, 5-(4-Chlorophenyl)-2-{[1-(3-fluorophenyl)-5-(morpholin-4-yl)-1H-1,2,4-triazol-3-yl]methyl}-4-[(2S)-3,3,3-trifluoro-2-hydroxypropyl]-2,4-dihydro-3H-1,2,4-triazol-3-one]	7.79	2.2	17.1
CN(C)c1nc(Cn2nc(-c3ccc(Cl)cc3)n(C[C@H](O)C(F)(F)F)c2=O)nn1-c1cccc(F)c1 [Example 120, 5-(4-Chlorophenyl)-2-{[5-(dimethylamino)-1-(3-fluorophenyl)-1H-1,2,4-triazol-3-yl]methyl}-4-[(2S)-3,3,3-trifluoro-2-hydroxypropyl]-2,4-dihydro-3H-1,2,4-triazol-3-one]	4.66	1.8	8.19
O=c1n(Cc2nc(N3CCC3)n(-c3cccc(F)c3)n2)nc(-c2ccc(Cl)cc2)n1C[C@H](O)C(F)(F)F [Example 121, 2-{[5-(Azetidin-1-yl)-1-(3-fluorophenyl)-1H-1,2,4-triazol-3-yl]methyl}-5-(4-chlorophenyl)-4-[(2S)-3,3,3-trifluoro-2-hydroxypropyl]-2,4-dihydro-3H-1,2,4-triazol-3-one]	6.4	1.0	6.12
CC1(C)CN(c2nc(Cn3nc(-c4ccc(Cl)cc4)n(C[C@H](O)C(F)(F)F)c3=O)nn2-c2ncccc2Cl)CCN1 [Example 122, 5-(4-Chlorophenyl)-2-{[1-(3-chloropyridin-2-yl)-5-(3,3-dimethylpiperazin-1-yl)-1H-1,2,4-triazol-3-yl]methyl}-4-[(2S)-3,3,3-trifluoro-2-hydroxypropyl]-2,4-dihydro-3H-1,2,4-triazol-3-one]	0.97	1606.2	1550
O=c1n(Cc2nc(NCCO)n(-c3cccc(F)c3)n2)nc(-c2ccc(Cl)cc2)n1C[C@H](O)C(F)(F)F [Example 123, 5-(4-Chlorophenyl)-2-({1-(3-fluorophenyl)-5-[(2-hydroxyethyl)amino]-1H-1,2,4-triazol-3-yl}methyl)-4-[(2S)-3,3,3-trifluoro-2-hydroxypropyl]-2,4-dihydro-3H-1,2,4-triazol-3-one]	2.15	2.1	4.59
